From the METLIN SMRT retention time set (Domingo-Almenara et al. 2019)

test: gradient 5% acetonitrile 3 min, to 50% in 2 min, to 85% in 15 min, held 3 min, 100 µL/min; conditions: column: Zorbax Extend-C18 2.1 x 50 mm; eluents: water / acetonitrile, 0.1% formic acid
Summary of the method: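 Retention times come from adduct peaks that were picked computationally and then checked by hand. The standards, pure and pooled in mixtures of ~100 molecules, were run on a Zorbax Extend-C18 column (2.1 × 50 mm, 1.8 μm) at 100 μL/min with water and acetonitrile, each with 0.1% formic acid. Detection was by quadrupole time-of-flight mass spectrometry in positive and negative ionization mode, with a dead volume of 40 μL and a dwell volume of 900 μL.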

Row | SMILES | RP-LC retention time
1 | CCc1nc(N)n(CC(=O)NCc2ccc3c(c2)OCO3)c(=O)c1C | 556 s
2 | Cc1ccsc1C(=O)Nc1cnc(-c2ccc(Cl)cc2)nc1 | 1110 s
3 | O=C(CCCc1nc(-c2ccccc2)no1)Nc1nc(-c2ccccc2)cs1 | 1080 s
4 | Cc1ccccc1-n1ccn(Cc2nc(-c3ccc(F)cc3)no2)c(=O)c1=O | 844 s
5 | COC(=O)c1ccccc1Nc1c(-c2ccccc2)nc2cnccn12 | 962 s
6 | O=C(Nc1nnc(Cc2ccc3c(c2)OCCO3)o1)c1sc2ccccc2c1Cl | 950 s
7 | CCN(C(=O)Nc1ccccc1[N+](=O)[O-])c1nc(-c2ccc(C)cc2)cs1 | 1410 s
8 | O=C(Nc1ccc(N2CCN(c3ccccc3)C2=O)nc1)c1ccc(F)c(F)c1 | 989 s
9 | O=C(NCc1ccc(Cl)cc1)c1cc2sccc2n1Cc1ccc(F)cc1 | 1170 s
10 | CCn1nnc2ccc(-c3noc(-c4ccccc4)n3)cc21 | 1040 s
11 | CCOC(=O)Cc1csc(NC(=O)C2CCN(c3cc(-n4ccnc4)ncn3)CC2)n1 | 576 s
12 | CCOC(=O)N1CCN(c2cc(C(=O)O)c3cc(NC(=O)CC)ccc3n2)CC1 | 553 s
13 | Cc1ccc(-n2nc(N3CCN(C(=O)Nc4ccc(F)cc4)CC3)ccc2=O)cc1 | 803 s
14 | COc1ccc(S(=O)(=O)Cc2nc(-c3ccccc3C)no2)cc1OC | 882 s
15 | COc1cccc(C(=O)N2CCc3nc(CNC(=O)C4CCC4)n(C)c3C2)c1 | 555 s
16 | CCOc1ccc(S(=O)(=O)NCC(c2cn(C)c3ccccc23)N(C)C)cc1F (configuration not stated) | 603 s
17 | Cc1cc(-c2c(C)sc(C)c2S(=O)(=O)Nc2ccc(C)c(C)c2)n[nH]1 | 1090 s
18 | CCC(=O)Nc1cccc(-c2nnc3n2CCC3)c1 | 588 s
19 | CCN1C(=O)C2(CCN(S(=O)(=O)c3cc(Cl)ccc3OC)CC2)c2ccccc21 | 1000 s
20 | Cc1cc(N2CCCC2)n2nc(CN3CCc4ccccc4C3)nc2n1 | 598 s
21 | O=C(c1ccsc1)N1CCOc2ccc(N3CCOCC3)cc2C1 | 701 s
22 | COc1cc(NC(=O)Cn2nc3c4cc(C)ccc4ncn3c2=O)cc(OC)c1 | 682 s
23 | O=C(c1ccc2c(=O)n(-c3ccccc3)c(N3CCCCC3)nc2c1)N1CCN(c2ccccn2)CC1 | 669 s
24 | COc1cc(OC)cc(C(=O)Nc2ccc3c(c2)Sc2ncccc2C(=O)N3C)c1 | 858 s
25 | O=C(Nc1ccc2c(c1)OCO2)c1cn(-c2cc(N3CCCC3)ncn2)cn1 | 808 s
26 | Cc1sc2ccn(CC(C)C)c(=O)c2c1C(=O)O | 863 s
27 | O=C(CCC1CCCC1)NCCc1noc(C2CC2)n1 | 807 s
28 | COCCc1noc([C@@H]2CC(F)(F)CN2C(=O)c2ccco2)n1 | 716 s
29 | COC(=O)c1nnn(-c2ccccc2C(F)(F)F)c1N | 936 s
30 | CC(O)(CNC(=O)NCc1cccs1)C1CC1 (configuration not stated) | 632 s

Now from value to molecule:

Row | RP-LC retention time | SMILES
31 | 1110 s | Cc1cccc(-c2nc(C)c3c(n2)N(Cc2ccco2)C(=O)CC3)c1
32 | 612 s | O=C(O)c1nnn(-c2ccc(F)cc2)c1-c1ccncc1
33 | 989 s | COc1ccc(C2(C(=O)Nc3cc(-c4nnc(C)o4)sc3C)CC2)cc1
34 | 690 s | COc1ccc(-c2cn3cccnc3n2)cc1NS(=O)(=O)c1ccc(C)cc1
35 | 776 s | CCCCN(C)C(=O)Cn1ccn2nc(-c3ccccc3)c(CO)c2c1=O
36 | 675 s | COc1ccc2[nH]c3c(c2c1)CCNC31CCN(S(=O)(=O)c2c(C)noc2C)CC1
37 | 878 s | COC(=O)c1nnn(-c2cccc(C)c2C)c1C(=O)OC
38 | 903 s | CC(=O)NCc1ccc(-c2noc(/C=C/c3cccc(Cl)c3)n2)s1
39 | 778 s | CCc1nc2nccc(-c3ccc(OC)cc3F)n2n1
40 | 709 s | CN1CCn2cc(S(=O)(=O)Nc3cccc(Cl)c3)cc2C1=O
41 | 688 s | CCn1c(=O)c2cc(C(=O)NCc3ccc(N4CCC(C)CC4)cc3)nn2c2ccccc21
42 | 806 s | O=C(O)CSc1c(-c2ccccc2)c2cc(Cl)ccc2[nH]c1=O
43 | 975 s | O=C1Nc2cc(C(=O)N3CCN(c4cccc(Cl)c4)CC3)ccc2N2CCCCC12 (configuration not stated)
44 | 664 s | CCC(C)NC(=O)C1CCN(c2nc3cccnc3s2)CC1 (configuration not stated)
45 | 709 s | CN(CC1CCOC1)C(=O)Nc1ccc(F)c(Cl)c1 (configuration not stated)
46 | 652 s | COCCN1C(=O)c2cccn2CC1CNS(=O)(=O)c1ccc2c(c1)C(C)(C)C(=O)N2 (configuration not stated)
47 | 827 s | COc1ccc(C(=O)NC2(c3nc(-c4ccncc4)no3)CCCCC2)cc1OC
48 | 734 s | O=C(NCCOc1ccc(-c2cccs2)nn1)NCc1ccccc1
49 | 978 s | COc1cc(OC)cc(-c2nnc(Cc3nc(-c4ccc5c(c4)OCO5)no3)o2)c1

Row | RP-LC retention time | SMILES
50 | 888 s | O=C(NCc1ccco1)C1CCCN(S(=O)(=O)Cc2ccc(Cl)cc2)C1 (configuration not stated)
51 | 640 s | CCC(=O)N1c2ccc(S(=O)(=O)CCC(=O)NC3CCN(Cc4ccccc4)CC3)cc2CC1C (configuration not stated)
52 | 771 s | CN(C(=O)CC(=O)Nc1ccc2nc3n(c(=O)c2c1)CCCCC3)c1cccc(C(F)(F)F)c1
53 | 681 s | O=C(C1CCN(S(=O)(=O)N2CCOCC2)CC1)N1CCC(Cc2nc(C3CCOCC3)no2)CC1
54 | 564 s | Cc1cnc(C2CCN(S(=O)(=O)c3ccccc3)C2)n1C(C)C (configuration not stated)
55 | 1230 s | Cc1ccc(S(=O)(=O)N2CCc3nc(-c4ccc(F)cc4)ncc3C2)cc1Cl
56 | 954 s | O=C(NCc1cccc(Cl)c1)c1c(O)c2cccnc2[nH]c1=O
57 | 720 s | COc1ccc(S(=O)(=O)N2CCC(c3cc4n(n3)CCCN(C)C4=O)CC2)cc1
58 | 658 s | CC(C)c1ccc(Sc2ccc(N3CCC(C(=O)NCCN(C)C)CC3)nn2)cc1
59 | 657 s | CC(C)NC(=O)C1CC(=O)N(C2CCCCC2)C1 (configuration not stated)
60 | 1090 s | CCCn1cc(C(=O)Nc2ccc(C)cc2)c(S(=O)(=O)N2CCSCC2)n1
61 | 665 s | CCNc1cc(N2CCC(CCC(=O)NCc3cccc(F)c3)CC2)ncn1
62 | 858 s | COc1ccc(NC(=O)c2cnc3c(c2)c(=O)n(C)c(=O)n3-c2ccccc2)cc1F
63 | 655 s | Cc1cc(-c2nnc(NC(=O)c3ccc4c(c3)OCCO4)o2)n(C)n1
64 | 817 s | COc1ccccc1C1(CNC(=O)Cc2ccccc2Cl)CCOCC1
65 | 732 s | Cc1cccc(CN2CCCN(c3ncccc3-c3nc(C4CC4)no3)CC2)c1
66 | 822 s | CC(C)(Oc1ccc(Cl)cc1)C(=O)Nc1ccc2cn[nH]c2c1
67 | 1070 s | Cc1ccc(CNC(=O)C2(C)CCCN(C(=O)Nc3cccc(Br)c3)C2)cc1 (configuration not stated)
